Assay results published in US8334261B2, “Osteopenia animal model” (Oriental Yeast Co., Ltd., priority 2006, dated 2012).

What was measured:
[1] = test system: GST-RANKL-administered 7-week-old female C57BL/6N mice; assay: Evaluation of RANKL-signal-inhibiting compound (LFM-A13) in osteopenia mouse models; assay type: in vivo
Method: GST or GST-RANKL (20 μg) was administered 3 times to 7-week-old female C57BL/6N mice every 24 hours. LFM-A13 (20 mg/kg body weigh) or physiological saline was administered thereto 1 hour before GST-RANKL administration. Measurement of the serum Ca concentration and bone morphology measurement was carried out 1.5 hours after the 3rd GST-RANKL administration. In addition, 3D image analysis was carried out with micro CT.

[2] = test system: GST-RANKL-administered 7-week-old female C57BL/6 mice; assay: Comparison of a plurality of bisphosphonates in GST-RANKL mice; assay type: in vivo, mouse; conditions: for dose at which the effects were exhibited: s.c. from the day before GST-RANKL
Method: GST-RANKL was intraperitoneally administered 3 times at 1 mg/kg every 24 hours. The femur, tibia, and serum were collected from each mouse 1.5 hours after the 3rd GST-RANKL administration. Measurement of TRAP-5b, calcium (Ca), and alkaline phosphatase (ALP) in the serum was carried out. Each femur was subjected to bone density measurement with pQCT and image analysis with micro CT.

[3] = test system: GST-RANKL-administered, ovariectomized 7-week-old female C57BL/6N mice; assay: Drug evaluation with a selective estrogen receptor modulator (raloxifene) in GST-RANKL/OVX mice; assay type: in vivo, mouse
Source text: In addition, PBS (i.p.) and ultrapure water (p.o.) were used as control substances for comparison with GST-RANKL and raloxifene, respectively, upon administration.
The serum collected from each mouse was subjected to measurement of serum bone resorption markers (Ca and TRAP-5b) and an osteogenesis marker (ALP). Each femur was subjected to measurement of the bone density, the bone mineral content, and the cortical bone thickness with pQCT at points 0.6, 0.8, 1.0 mm from the distal growth plate on the proximal side. In addition, image analysis was carried out with micro CT.

[4] = test system: GST-RANKL-administered 7-week-old female C57BL/6 mice; assay: Drug evaluation with bisphosphonate (risedronate) in GST-RANKL mice; assay type: in vivo, mouse
Method: Risedronate was separately administered via a subcutaneous route to groups of 7-week-old female C57BL/6 mice at doses of 3, 10, and 30 μg/kg every 24 hours from the day before GST-RANKL administration to the end of the experimentation. The femur and serum were collected from each mouse 1.5 hours after the 3rd administration of GST-RANKL. Measurement of TRAP-5b, calcium (Ca), and alkaline phosphatase (ALP) was carried out. Each femur was subjected to bone density measurement and image analysis with the use of pQCT.

[5] = test system: GST-RANKL-administered 7-week-old female C57BL/6N mice; assay: Evaluation of an osteoporosis therapeutic agent (risedronate) with GST-RANKL-administered mice; assay type: in vivo, mouse
Method: GST-RANKL (426 nmol) was intraperitoneally administered 3 times to groups of 7-week-old female C57BL/6N mice (5 to 6 individuals each) every 24 hours. An osteoporosis therapeutic agent (risedronate) was subcutaneously administered at 0.01 mg/kg every 24 hours from 3 days before GST-RANKL administration. Administration of the agent was continued to the end of the experimentation every 24 hours. The serum, femur, and tibia were collected from each mouse 1.5 hours after the 3rd administration of GST-RANKL. Bone resorption parameters (calcium, CTx, and TRAP-5b) and osteogenesis parameters (osteocalcin and ALP) in the serum were measured. The femur bone density was determined with the use of pQCT and micro CT. Measurement values were compared with those for a control group by the Dunnett method for testing.

[6] = test system: 7-week-old female C57BL/6N mice; assay: Production of osteopenia model mice with soluble RANKL; assay type: in vivo, mouse
Method: Soluble RANKL (produced by Peprotech) was intraperitoneally administered 3 times to groups of 7-week-old female C57BL/6N mice (10 individuals each) at doses of 57 and 426 nmol every 24 hours. The serum and femur were collected from each mouse 1.5 hours after the 3rd administration. Bone resorption markers and osteogenesis markers in the serum were measured. The bone density was measured with the use of pQCT at points 0.6, 0.8, and 1.0 mm from the distal growth plate on the proximal side of the femur.

[7] = raloxifene 1 or 10 mg/kg p.o. 14 days
[8] = combination of GST-RANKL and risedronate 0.01 mg/kg

C/C(O)=C(\C#N)C(=O)Nc1cc(Br)ccc1Br [LFM-A13]
bone mass decrease caused by GST-RANKL (micro CT) ([1]; LFM-A13 20 mg/kg 1 hour before GST-RANKL 20 μg): suppressed
decrease in the trabecular number (Tb.N) resulting from GST-RANKL ([1]; LFM-A13 20 mg/kg, p<0.01): significantly suppressed
decrease in unit bone mass (BV/TV) caused by GST-RANKL ([1]; LFM-A13 20 mg/kg, p<0.01): significantly suppressed
increase in the eroded surface area (ES/BS) resulting from GST-RANKL ([1]; LFM-A13 20 mg/kg, p<0.01): significantly suppressed
increase in the osteoclast number (N.Oc/B.Pm) resulting from GST-RANKL ([1]; LFM-A13 20 mg/kg, p<0.01): significantly suppressed
decrease in the trabecular width (Tb.Th) resulting from GST-RANKL ([1]; LFM-A13 20 mg/kg, p<0.05): significantly suppressed
increase in the serum Ca concentration resulting from GST-RANKL ([1]; LFM-A13 20 mg/kg, p<0.05): significantly suppressed

NCCCC(O)(P(=O)(O)O)P(=O)(O)O [alendronate]
serum Ca concentration vs RANKL administration ([2]; 300 μg/kg s.c., p<0.05): significantly decreased
increase in the TRAP-5b concentration ([2]; 300 μg/kg, p<0.01): significantly suppressed
dose at which the effects were exhibited [2]: 0.3 mg/kg

CC(O)(P(=O)(O)O)P(=O)(O)O [etidronate]
dose at which the effects were exhibited [2]: 30 mg/kg

O=C(c1ccc(OCCN2CCCCC2)cc1)c1c(-c2ccc(O)cc2)sc2cc(O)ccc12 [raloxifene]
cancellous bone density (pQCT) ([3]; among the all groups): no significant differences
cortical bone mineral content increase in GST-RANKL+OVX group ([3]; raloxifene 1 mg/kg, 0.8 mm): 93%
cortical bone thickness increase in GST-RANKL+OVX group ([3]; raloxifene 1 mg/kg, 0.8 mm): 101%
cortical bone mineral content increase in GST-RANKL+OVX group ([3]; raloxifene 1 mg/kg, 1.0 mm): 136%
cortical bone thickness increase in GST-RANKL+OVX group ([3]; raloxifene 1 mg/kg, 1.0 mm): 137%
total bone density increase in GST-RANKL+OVX group ([3]; raloxifene 1 mg/kg, 1.0 mm): 10%
serum ALP concentration ([3]; raloxifene 1 mg/kg, p<0.05): significantly decreased
cortical bone mineral content increase in GST-RANKL+OVX group ([3]; raloxifene 10 mg/kg, 0.6 mm): 87%
cortical bone thickness increase in GST-RANKL+OVX group ([3]; raloxifene 10 mg/kg, 0.6 mm): 92%
total bone density increase in GST-RANKL+OVX group ([3]; raloxifene 10 mg/kg, 0.6 mm): 10%
cortical bone mineral content increase in GST-RANKL+OVX group ([3]; raloxifene 10 mg/kg, 0.8 mm): 118%
cortical bone thickness increase in GST-RANKL+OVX group ([3]; raloxifene 10 mg/kg, 0.8 mm): 123%
total bone density increase in GST-RANKL+OVX group ([3]; raloxifene 10 mg/kg, 0.8 mm): 11%
cortical bone mineral content increase in GST-RANKL+OVX group ([3]; raloxifene 10 mg/kg, 1.0 mm): 137%
cortical bone thickness increase in GST-RANKL+OVX group ([3]; raloxifene 10 mg/kg, 1.0 mm): 133%
total bone density increase in GST-RANKL+OVX group ([3]; raloxifene 10 mg/kg, 1.0 mm): 11%
serum ALP concentration ([3]; raloxifene 10 mg/kg, p<0.01): significantly decreased
serum Ca concentration [3, 7]: no significant changes
serum TRAP-5b concentration [3, 7]: no significant changes

O=P(O)(O)C(O)(Cc1cccnc1)P(=O)(O)O [risedronate]
serum TRAP-5b decrease vs RANKL alone ([4]; risedronate 3 μg/kg s.c. every 24 hours): approximately 30%
bone density decrease suppressed to ([4]; risedronate 3 μg/kg, 0.6 mm): 12%
bone density decrease suppressed to ([4]; risedronate 3 μg/kg, 0.8 mm): 18%
bone density decrease suppressed to ([4]; risedronate 3 μg/kg, 1.0 mm): 24%
serum TRAP-5b decrease vs RANKL alone ([4]; risedronate 10 μg/kg s.c.): ~50%
bone density decrease suppressed to ([4]; risedronate 10 μg/kg, 0.6 mm): 13%
bone density decrease suppressed to ([4]; risedronate 10 μg/kg, 0.8 mm): 28%
bone density decrease suppressed to ([4]; risedronate 10 μg/kg, 1.0 mm): 30%
serum ALP concentration vs RANKL alone ([4]; risedronate 30 μg/kg): significantly decreased
serum TRAP-5b decrease vs RANKL alone ([4]; risedronate 30 μg/kg s.c.): ~70%
bone density decrease suppressed to ([4]; risedronate 30 μg/kg, 0.6 mm): 10%
bone density decrease suppressed to ([4]; risedronate 30 μg/kg, 0.8 mm): 18%
bone density decrease suppressed to ([4]; risedronate 30 μg/kg, 1.0 mm): 20%
serum CTx concentration decrease vs control group ([5]; combination of GST-RANKL 426 nmol and risedronate 0.01 mg/kg s.c.): approximately 30%
serum TRAP-5b concentration decrease vs control group ([5]; combination of GST-RANKL 426 nmol and risedronate 0.01 mg/kg s.c. every 24 hours): approximately 30%
femur bone density vs control [5, 8]: comparable to that for the control group
serum alkaline phosphatase concentration vs control [5, 8]: did not change
serum osteocalcin concentration vs control [5, 8]: did not change
serum Ca concentration vs RANKL administration ([2]; 1 μg/kg s.c., p<0.01): significantly decreased
increase in the TRAP-5b concentration ([2]; 1 μg/kg, p<0.05): significantly suppressed
increase in the TRAP-5b concentration ([2]; 10 μg/kg, p<0.01): significantly suppressed
serum Ca concentration vs RANKL administration ([2]; 100 μg/kg s.c., p<0.01): significantly decreased
bone density decrease suppressed to ([2]; 100 μg/kg, 0.6-mm point): 1%
increase in the TRAP-5b concentration ([2]; 100 μg/kg, p<0.01): significantly suppressed
dose at which the effects were exhibited [2]: 0.1 mg/kg

B1: Soluble RANKL: Soluble RANKL (produced by Peprotech) (protein, UniProt O14788 69-317, looked up)
extracellular domain: YFRAQMDPNRISEDGTHCIYRILRLHENADFQDTTLESQDTKLIPDSCRRIKQAFQGAVQKELQHIVGSQHIRAEKAMVDGSWLDLAKRSKLEAQPFAHLTINATDIPSGSHKVSLSSWYHDRGWAKISNMTFSNGKLIVNQDGFYYLYANICFRHHETSGDLATEYLQLMVYVTKTSIKIPSSHTLMKGGSTKYWSGNSEFHFYSINVGGFFKLRSGEEISIEVSNPSLLDPDQDATYFGAFKVRDID
modifications: extracellular domain
femur bone density decrease ([6]; 426 nmol): approximately 20%
serum CTx concentration, fold as high ([6]; 426 nmol): ~1.5 fold
serum alkaline phosphatase concentration ([6]; 426 nmol): did not vary
serum osteocalcin concentration ([6]; 426 nmol): did not vary
serum calcium concentration, fold as high ([6]; 426 nmol high dose i.p. 3 times): approximately 1.4 fold
serum TRAP-5b concentration, fold as high ([6]; 426 nmol, no significant difference): approximately 1.25 fold
